Measurements published in patent US20250282760A1 (Merck Sharp & Dohme LLC, priority 2022, published 2025).

Molecular target: T1, human OX2R (Homo sapiens, UniProt O43614)
T1 construct: expressed in transfected cells; host or cells: Chinese hamster ovary (CHO) cells, kept under G418 selection
T1 sequence (O43614 1-444): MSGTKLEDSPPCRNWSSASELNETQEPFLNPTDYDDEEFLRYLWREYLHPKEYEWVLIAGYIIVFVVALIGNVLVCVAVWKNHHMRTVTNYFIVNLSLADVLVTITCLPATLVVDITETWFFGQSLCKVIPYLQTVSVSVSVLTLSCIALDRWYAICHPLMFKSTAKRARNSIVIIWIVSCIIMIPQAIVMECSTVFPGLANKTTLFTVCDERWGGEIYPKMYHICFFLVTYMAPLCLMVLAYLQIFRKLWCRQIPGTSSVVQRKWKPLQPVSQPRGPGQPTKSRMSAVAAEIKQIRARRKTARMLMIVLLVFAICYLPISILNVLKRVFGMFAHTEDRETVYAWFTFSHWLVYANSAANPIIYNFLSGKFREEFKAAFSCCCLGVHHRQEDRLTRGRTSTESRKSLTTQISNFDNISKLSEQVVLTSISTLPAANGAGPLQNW
Assay: IPOne (IP-1 accumulation) assay of orexin receptor agonist activity in CHO cells expressing human OX2R
Format: cell-based
Details: for IC50: CHO cells expressing human OX2R, IP-One assay, 2 hours incubation, four parameter logistic fit, read-out: hOX2R_IP IC50; for Emax: CHO, percent activity at maximum tested concentration, relative to reference compound at 1 uM (100% activity) for human OX2R
Source text: The utility of the compounds in accordance with the present invention as orexin receptor OX1R and/or OX2R agonists may be readily determined without undue experimentation by methodology well known in the art. Both the OX1R and/or OX2R G-coupled protein receptors (GPCRs) couple through the Gαq signaling pathway, which ultimately promotes calcium mobilization via inositol triphosphate (IP3) production. […] The utility of the compounds in accordance with the present invention as orexin receptor OX1R and/or OX2R agonists may be determined utilizing this assay.
In a typical experiment, the OX1 and OX2 receptor agonist activity is determined in accordance with the following general experimental method. Chinese hamster ovary (CHO) cells expressing human OX1R and/or the human OX2R were grown in Iscove's modified DMEM containing glutaMAX™, 1% G418, 100 U/mL penicillin, 100 μg/mL streptomycin and 10% heat-inactivated qualified fetal bovine serum (FBS). […] During this incubation, IP-one detection reagents were prepared (38:1:1 lysis buffer:D2:AB-cryptate reagents).
For each compound, data were fit to a four parameter logistic fit (ActivityBase software) and the EC50 was reported as the inflection point of the resulting curve. Percent effect for each test compound was determined as the percentage of sample raw value/mean max effect, where the mean max effect was derived from the mean raw value of 32 control wells per assay plate (using Orexin A (cat #003-30) at 1 μM for human OX1R and a reference compound at 1 uM with 100% activity previously established by comparison to Orexin A for human OX2R). The intrinsic orexin receptor agonist activity of a compound which may be used in the present invention may be determined by these assays.

Row | Structure (SMILES) | IC50 | Emax
1 | CC(C)C(=O)N1[C@@H](C(=O)NCc2ccc(-c3ccco3)cc2)CN(S(=O)(=O)c2ccccc2)C[C@H]1C(F)(F)F (relative stereo) [Example 78, cis-N-(4-(furan-2-yl)benzyl)-1-isobutyryl-4-(phenylsulfonyl)-6-(trifluoromethyl)piperazine-2-carboxamide] | 2670 nM | 97.1%
2 | CC(C)C(=O)N1[C@H](C)CN(S(=O)(=O)c2ccccc2)C[C@@H]1C(=O)NCc1ccc(-c2ccccc2F)cc1 (relative stereo) [Example 21, cis-N-((2′-fluoro-[1,1′-biphenyl]-4-yl)methyl)-1-isobutyryl-6-methyl-4-(phenylsulfonyl)piperazine-2-carboxamide] | 92.2 nM | 90.7%
3 | CCCc1ccc(CNC(=O)[C@H]2CN(S(=O)(=O)c3ccccc3)C[C@@H](C)N2C(=O)C(C)C)cc1 (relative stereo) [Example 19-10, cis-1-isobutyryl-6-methyl-4-(phenylsulfonyl)-N-(4-propylbenzyl)piperazine-2-carboxamide] | 158 nM | 93.8%
4 | CC(C)C(=O)N1[C@H](C)CN(S(=O)(=O)c2ccccc2)C[C@@H]1C(=O)NCc1ccc(-n2cccn2)cc1 (relative stereo) [Example 19-9, cis-N-(4-(1H-pyrazol-1-yl)benzyl)-1-isobutyryl-6-methyl-4-(phenylsulfonyl)piperazine-2-carboxamide] | 409 nM | 99.2%
5 | Cc1c(CNC(=O)[C@H]2CN(S(=O)(=O)c3ccccc3)C[C@@H](C)N2C(=O)C(C)C)ccc(-c2ccco2)c1F (relative stereo) [Example 51, cis-N-(3-fluoro-4-(furan-2-yl)-2-methylbenzyl)-1-isobutyryl-6-methyl-4-(phenylsulfonyl)piperazine-2-carboxamide] | 85.7 nM | 99.8%
6 | CC(C)C(=O)N1[C@H](C)CN(S(=O)(=O)c2ccccc2)C[C@@H]1C(=O)NCc1ccc(-n2nccn2)cc1 (relative stereo) [Example 19-7, cis-N-(4-(2H-1,2,3-triazol-2-yl)benzyl)-1-isobutyryl-6-methyl-4-(phenylsulfonyl)piperazine-2-carboxamide] | 82.2 nM | 101%
7 | O=C(NCc1ccc2ccccc2c1)C1CN(S(=O)(=O)c2ccccc2)CCN1C(=O)c1ccco1 (stereo not drawn) [Example 10-9, 1-(furan-2-carbonyl)-N-(naphthalen-2-ylmethyl)-4-(phenylsulfonyl)piperazine-2-carboxamide] | 6170 nM | 93.8%
8 | CC[C@@H]1CN(S(=O)(=O)c2ccccc2)C[C@H](C(=O)NCc2ccc(-c3ccco3)cc2)N1C(=O)C(C)C (relative stereo) [Example 71, cis-6-ethyl-N-(4-(furan-2-yl)benzyl)-1-isobutyryl-4-(phenylsulfonyl)piperazine-2-carboxamide] | 244 nM | 100%
9 | O=C(NCc1ccc2ccccc2c1)C1CN(S(=O)(=O)c2ccccc2)CCN1C(=O)C1CC1 (stereo not drawn) [Example 10-5, 1-(cyclopropanecarbonyl)-N-(naphthalen-2-ylmethyl)-4-(phenylsulfonyl)piperazine-2-carboxamide] | 8990 nM | 98.7%
10 | CC(C)C(=O)N1[C@H](C)CN(S(=O)(=O)c2ccccc2)C[C@@H]1C(=O)NCc1ccc(CC(C)(F)F)cc1 (single isomer, unassigned) [Example 66] | 2230 nM | 97.9%
11 | CC(C)C(=O)N1[C@@H](C)CN(S(=O)(=O)c2ccccc2)C[C@H]1C(=O)NCc1ccc(OC(C)(F)F)cc1 (single isomer, unassigned) [Example 19-4-2] | 9100 nM | 95.6%
12 | CC(C)C(=O)N1[C@H](C)CN(S(=O)(=O)c2ccccc2)C[C@@H]1C(=O)NCc1ccc(-c2ncco2)cc1 (relative stereo) [Example 19-8, cis-1-isobutyryl-6-methyl-N-(4-(oxazol-2-yl)benzyl)-4-(phenylsulfonyl)piperazine-2-carboxamide] | 146 nM | 99.5%
13 | CC(=O)N1CCN(S(=O)(=O)c2ccccc2)CC1C(=O)NCc1ccc2ccccc2c1 (stereo not drawn) [Example 11, 1-acetyl-N-(naphthalen-2-ylmethyl)-4-(phenylsulfonyl)piperazine-2-carboxamide] | 34700 nM | 81.6%
14 | Cc1cc(-c2ccco2)cnc1CNC(=O)[C@H]1CN(S(=O)(=O)c2ccccc2)C[C@@H](C)N1C(=O)C(C)C (relative stereo) [Example 55, cis-N-((5-(furan-2-yl)-3-methylpyridin-2-yl)methyl)-1-isobutyryl-6-methyl-4-(phenylsulfonyl)piperazine-2-carboxamide] | 2980 nM | 93.5%
15 | CC(C)C(=O)N1[C@H](C)CN(S(=O)(=O)c2ccccc2)C[C@@H]1C(=O)NCc1ccc(-c2ccco2)c(F)c1 (relative stereo) [Example 26, cis-N-(3-fluoro-4-(furan-2-yl)benzyl)-1-isobutyryl-6-methyl-4-(phenylsulfonyl)piperazine-2-carboxamide] | 11.2 nM | 100%
16 | CC(C)C(=O)N1[C@H](C)CN(S(=O)(=O)c2ccccc2)C[C@@H]1C(=O)NCc1ccc(-c2ccccc2)cc1 (relative stereo) [Example 19-3, cis-N-([1,1′-biphenyl]-4-ylmethyl)-1-isobutyryl-6-methyl-4-(phenylsulfonyl)piperazine-2-carboxamide] | 68.9 nM | 87.1%
17 | CC(C)C(=O)N1[C@H](C)CN(S(=O)(=O)c2ccccc2)C[C@@H]1C(=O)NCc1ccc(-c2ccco2)cn1 (relative stereo) [Example 23, cis-N-((5-(furan-2-yl)pyridin-2-yl)methyl)-1-isobutyryl-6-methyl-4-(phenylsulfonyl)piperazine-2-carboxamide] | 108 nM | 98.9%

Further lines, results first:

Row | IC50 | Emax | Structure (SMILES)
18 | 2670 nM | 92% | Cc1cccc(S(=O)(=O)N2CCN(C(=O)c3cccs3)C(C(=O)NCc3ccc4ccccc4c3)C2)c1 (stereo not drawn) [Example 89-2, 4-[(3-methylphenyl)sulfonyl]-N-[(naphthalen-2-yl)methyl]-1-(thiophene-2-carbonyl)piperazine-2-carboxamide]
19 | 14.6 nM | 106% | Cc1cc(-c2ccco2)c(F)cc1CNC(=O)[C@@H]1CN(S(=O)(=O)c2ccccc2)C[C@H](C)N1C(=O)C(C)C (relative stereo) [Example 47-5, cis-N-(5-fluoro-4-(furan-2-yl)-2-methylbenzyl)-1-isobutyryl-6-methyl-4-(phenylsulfonyl) piperazine-2-carboxamide]
20 | 144 nM | 98.3% | CC(C)C(=O)N1[C@H](C)CN(S(=O)(=O)c2ccccc2)C[C@@H]1C(=O)NCc1ccc(-c2ccco2)c(C#N)c1 (relative stereo) [Example 47-2, cis-N-(3-cyano-4-(furan-2-yl)benzyl)-1-isobutyryl-6-methyl-4-(phenylsulfonyl)piperazine-2-carboxamide]
21 | 5510 nM | 89.6% | O=C(NCc1ccc2ccccc2c1)C1CN(S(=O)(=O)c2ccc(F)cc2)CCN1C(=O)c1cccs1 (stereo not drawn) [Example 89-9, 4-[(4-fluorophenyl)sulfonyl]-N-[(naphthalen-2-yl)methyl]-1-(thiophene-2-carbonyl)piperazine-2-carboxamide]
22 | 5280 nM | 75.5% | O=C(NCc1ccc2ccccc2c1)C1CN(S(=O)(=O)c2ccccc2Cl)CCN1C(=O)c1cccs1 (stereo not drawn) [Example 89-4, 4-[(2-chlorophenyl)sulfonyl]-N-[(naphthalen-2-yl)methyl]-1-(thiophene-2-carbonyl)piperazine-2-carboxamide]
23 | 27.9 nM | 94.2% | COc1cc(-c2ccco2)ccc1CNC(=O)[C@H]1CN(S(=O)(=O)c2ccccc2)C[C@@H](C)N1C(=O)C(C)C (relative stereo) [Example 47-4, cis-N-(4-(furan-2-yl)-2-methoxybenzyl)-1-isobutyryl-6-methyl-4-(phenylsulfonyl)piperazine-2-carboxamide]
24 | 100000 nM | 23.1% | N#Cc1ccc(S(=O)(=O)N2CCN(C(=O)c3cccs3)C(C(=O)NCc3ccc4ccccc4c3)C2)cc1 (stereo not drawn) [Example 89-5, 4-[(4-cyanophenyl)sulfonyl]-N-[(naphthalen-2-yl)methyl]-1-(thiophene-2-carbonyl)piperazine-2-carboxamide]
